Measurements taken from the supplement of paper PMC10883282.

What was measured:
Experiment in all cases: relative viability vs DMSO control (72 h) (fraction); higher = more viable cells
G401 = test system: G401
In short: (§1)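 Relative viability is percent growth read by ATPLite and averaged over up to triplicate wells. Sarcoma cells were seeded in 384-well plates to reach 80–90% confluence and given 2.5 µl of serially diluted compound after 24 h, from source plates of 10 mM to 0.0002 mM. Incubation lasted 72 h at 37 °C, 5% CO2, with 0.1% DMSO vehicle and a 5 µM positive control, and the data were rescaled so 1 equals full and 0 equals none.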

HS729 = test system: HS729
In short: as §1

HT1080 = test system: HT1080
In short: as §1

KHOS-240S = test system: KHOS-240S
In short: as §1

KHOS-NP = test system: KHOS-NP
In short: as §1

RD-ES = test system: RD-ES
In short: as §1

RD = test system: RD
In short: as §1

SK-LMS-1 = test system: SK-LMS-1
In short: as §1

SW1353 = test system: SW1353
In short: as §1

SW684 = test system: SW684
In short: as §1

SW872 = test system: SW872
In short: as §1

SYO-1 = test system: SYO-1
In short: as §1

Cc1ccc(Nc2nccc(N(C)c3ccc4c(C)n(C)nc4c3)n2)cc1S(N)(=O)=O [Pazopanib]
Settings	relative viability
G401, 0.00017 µM	0.952
G401, 0.00051 µM	1.01
G401, 0.00152 µM	0.994
G401, 0.00457 µM	0.983
G401, 0.01372 µM	1
G401, 0.04115 µM	0.949
G401, 0.1235 µM	0.909
G401, 0.3704 µM	0.864
G401, 1.111 µM	0.857
G401, 3.333 µM	0.696
G401, 10 µM	0.449
HS729, 0.00017 µM	0.9
HS729, 0.00051 µM	0.922
HS729, 0.00152 µM	0.876
HS729, 0.00457 µM	0.879
HS729, 0.01372 µM	0.917
HS729, 0.04115 µM	0.8727
HS729, 0.1235 µM	0.843
HS729, 0.3704 µM	0.793
HS729, 1.111 µM	0.724
HS729, 3.333 µM	0.7
HS729, 10 µM	0.554
HT1080, 0.00017 µM	1.03
HT1080, 0.00051 µM	1.064
HT1080, 0.00152 µM	1.04
HT1080, 0.00457 µM	1.05
HT1080, 0.01372 µM	1.045
HT1080, 0.04115 µM	1.05
HT1080, 0.1235 µM	1.03
HT1080, 0.3704 µM	1.03
HT1080, 1.111 µM	1.05
HT1080, 3.333 µM	1.07
HT1080, 10 µM	1.07
KHOS-240S, 0.00017 µM	1.03
KHOS-240S, 0.00051 µM	1.04
KHOS-240S, 0.00152 µM	1.05
KHOS-240S, 0.00457 µM	1.04
KHOS-240S, 0.01372 µM	1.03
KHOS-240S, 0.04115 µM	1.02
KHOS-240S, 0.1235 µM	0.975
KHOS-240S, 0.3704 µM	0.974
KHOS-240S, 1.111 µM	0.932
KHOS-240S, 3.333 µM	0.88
KHOS-240S, 10 µM	0.621
KHOS-NP, 0.00017 µM	1.04
KHOS-NP, 0.00051 µM	1.05
KHOS-NP, 0.00152 µM	1.038
KHOS-NP, 0.00457 µM	1.02
KHOS-NP, 0.01372 µM	1.02
KHOS-NP, 0.04115 µM	1.06
KHOS-NP, 0.1235 µM	1.03
KHOS-NP, 0.3704 µM	1.01
KHOS-NP, 1.111 µM	0.99
KHOS-NP, 3.333 µM	0.968
KHOS-NP, 10 µM	0.719
RD, 0.00017 µM	1.11
RD, 0.00051 µM	1.12
RD, 0.00152 µM	1.12
RD, 0.00457 µM	1.11
RD, 0.01372 µM	1.11
RD, 0.04115 µM	1.12
RD, 0.1235 µM	1.12
RD, 0.3704 µM	1.13
RD, 1.111 µM	1.12
RD, 3.333 µM	1.16
RD, 10 µM	1.1
RD-ES, 0.00017 µM	0.95
RD-ES, 0.00051 µM	0.95
RD-ES, 0.00152 µM	0.968
RD-ES, 0.00457 µM	0.962
RD-ES, 0.01372 µM	0.985
RD-ES, 0.04115 µM	0.975
RD-ES, 0.1235 µM	0.96
RD-ES, 0.3704 µM	0.973
RD-ES, 1.111 µM	1
RD-ES, 3.333 µM	0.9311
RD-ES, 10 µM	0.727
SK-LMS-1, 0.00017 µM	0.993
SK-LMS-1, 0.00051 µM	1
SK-LMS-1, 0.00152 µM	1.02
SK-LMS-1, 0.00457 µM	1.06
SK-LMS-1, 0.01372 µM	1.01
SK-LMS-1, 0.04115 µM	0.998
SK-LMS-1, 0.1235 µM	0.973
SK-LMS-1, 0.3704 µM	0.9626
SK-LMS-1, 1.111 µM	0.981
SK-LMS-1, 3.333 µM	0.935
SK-LMS-1, 10 µM	0.776
SW684, 0.00017 µM	1.13
SW684, 0.00051 µM	1.13
SW684, 0.00152 µM	1.19
SW684, 0.00457 µM	1.15
SW684, 0.01372 µM	1.15
SW684, 0.04115 µM	1.129
SW684, 0.1235 µM	1.14
SW684, 0.3704 µM	1.12
SW684, 1.111 µM	1.16
SW684, 3.333 µM	1.13
SW684, 10 µM	0.878
SW872, 0.00017 µM	1
SW872, 0.00051 µM	0.986
SW872, 0.00152 µM	0.988
SW872, 0.00457 µM	0.9911
SW872, 0.01372 µM	0.989
SW872, 0.04115 µM	0.934
SW872, 0.1235 µM	0.9475
SW872, 0.3704 µM	0.968
SW872, 1.111 µM	0.984
SW872, 3.333 µM	0.934
SW872, 10 µM	0.694
SW1353, 0.00017 µM	0.962
SW1353, 0.00051 µM	0.952
SW1353, 0.00152 µM	0.94
SW1353, 0.00457 µM	0.977
SW1353, 0.01372 µM	0.96
SW1353, 0.04115 µM	0.947
SW1353, 0.1235 µM	0.946
SW1353, 0.3704 µM	0.939
SW1353, 1.111 µM	0.931
SW1353, 3.333 µM	0.89
SW1353, 10 µM	0.8
SYO-1, 0.00017 µM	0.919
SYO-1, 0.00051 µM	0.901
SYO-1, 0.00152 µM	0.882
SYO-1, 0.00457 µM	0.862
SYO-1, 0.01372 µM	0.823
SYO-1, 0.04115 µM	0.777
SYO-1, 0.1235 µM	0.685
SYO-1, 0.3704 µM	0.576
SYO-1, 1.111 µM	0.506
SYO-1, 3.333 µM	0.471
SYO-1, 10 µM	0.369
